Results on four compounds are retold here after paper PMC8600089, “The development of a high-affinity conformation-sensitive antibody mimetic using a biocompatible copolymer carrier (iBody)” (The Journal of Biological Chemistry, 2021).

Where two headings read alike, the source gives them in different places. Starred links: 1 amine or outer side, 2 acyl side, 3 side chain; linkers in the order of their positions; H or OH if unused. Positions of bridges follow the written chain, without caps; N, C: chain ends. Residues, ends and D or L forms follow the SMILES beside them. Groups on a side chain read outwards from the residue. *: point of attachment. PEG12 = NCCOCCOCCOCCOCCOCCOCCOCCOCCOCCOCCOCCOCCC(=O)O; Biotin = O=C1N[C@H]2[C@H](CS[C@H]2CCCCC(=O)*)N1; TBMB = c1c(C[*:1])cc(C[*:3])cc1C[*:2] Bounds are passed on as bounds.

The target in test [1] is T1, recombinant extracellular part of PSMA (Homo sapiens, UniProt Q04609). Nature of the test: Competition ELISA: iBody 1 binding to PSMA versus PSMA inhibitors. In general terms: ELISA stands for enzyme-linked immunosorbent assay.
Another test has as its target PSMA (AviPSMA) (Homo sapiens, UniProt Q04609). The experiment in a line: PSMA activity assay (HPLC, substrate pteroyl-di-L-glutamate). It counts as biochemical.
The target in test [2] is T1, recombinant extracellular part of PSMA. The experiment in a line: ELISA with immobilized PSMA.

T1 sequence (Q04609 44-750 limits assumed): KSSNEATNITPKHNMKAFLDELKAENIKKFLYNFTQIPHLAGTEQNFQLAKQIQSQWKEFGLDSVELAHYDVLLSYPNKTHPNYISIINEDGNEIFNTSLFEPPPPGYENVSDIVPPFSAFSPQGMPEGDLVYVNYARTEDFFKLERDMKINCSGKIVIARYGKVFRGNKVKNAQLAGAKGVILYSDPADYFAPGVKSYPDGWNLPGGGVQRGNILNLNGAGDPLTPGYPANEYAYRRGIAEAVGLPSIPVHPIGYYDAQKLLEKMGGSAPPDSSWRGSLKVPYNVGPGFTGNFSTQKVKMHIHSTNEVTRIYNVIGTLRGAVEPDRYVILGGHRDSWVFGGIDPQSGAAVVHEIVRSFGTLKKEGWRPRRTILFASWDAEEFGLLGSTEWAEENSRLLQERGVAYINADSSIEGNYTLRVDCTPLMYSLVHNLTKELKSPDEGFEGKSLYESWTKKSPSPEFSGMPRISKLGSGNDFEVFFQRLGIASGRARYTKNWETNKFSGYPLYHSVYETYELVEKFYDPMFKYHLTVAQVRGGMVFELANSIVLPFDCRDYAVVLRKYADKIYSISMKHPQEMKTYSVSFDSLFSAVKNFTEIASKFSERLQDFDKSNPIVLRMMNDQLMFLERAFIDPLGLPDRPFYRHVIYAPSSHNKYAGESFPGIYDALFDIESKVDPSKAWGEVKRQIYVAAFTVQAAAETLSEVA
Chain of PSMA (AviPSMA) (Q04609 44-750 limits assumed): as above

With `O=C(O)CCC(CP(=O)(O)O)C(=O)O` (centres unmarked) [2-PMPA, 2-(phosphonomethyl)pentane-1,5-dioic acid], the “competition with binding of iBody 1 to PSMA on ELISA (in words)” value in test [1] is reported as “outcompeted”.

In general, IC50 refers to the point on the concentration scale where inhibition reaches its midpoint. Higher therefore signals a need for much substance. The inhibition is the relative decrease from the control value, in per cent. For orientation: EC50 means the midpoint of the concentration-response curve. `CC(=O)N[C@H]1CSCc2cc3cc(c2)CSC[C@H](NC(=O)[C@H](CCC(=O)O)NC(=O)[C@H](CC(=O)O)NC(=O)[C@H](CC(=O)O)NC1=O)C(=O)N1CCC[C@H]1C(=O)N[C@@H](CC(=O)O)C(=O)N[C@@H](Cc1ccc(O)cc1)C(=O)N[C@@H](C(C)C)C(=O)N[C@H](C(=O)NCC(=O)NCC(=O)N[C@@H](CO)C(=O)NCC(=O)N[C@@H](CCCCNC(=O)CCOCCOCCOCCOCCOCCOCCOCCOCCOCCOCCOCCOCCNC(=O)CCCC[C@@H]1SC[C@@H]2NC(=O)N[C@@H]21)C(N)=O)CSC3` [Peptide 1] (Ac-CDDECPDYVCGGSGK([PEG12-Biotin])-NH2; linker 1-5-10 via TBMB): on PSMA (AviPSMA) (cell gives μM under a head in nM, 20-min incubation, 37 °C, n = 3), the IC50 was > 50 µM. The same compound yielded an inhibition at 50 µM on PSMA (AviPSMA) (in 50μM) of 10%. Further, the EC50 in test [2] was > 5 µM.

As to phosphate, in test [1] (iBody 1 (5 nM per legend), inhibitor pre-incubated 30 min, then iBody 60 min at RT, representative of >3 experiments, n = 3), the “competition with binding of iBody 1 to PSMA on ELISA (in words)” value was “outcompeted”.

For “poly(HPMA-co-Ma-β-Ala-ATTO488-co-Ma-β-Ala-NH-ED-biotin) [iBody 3, reference compound]”, the “Ratio: value on layer with PSMA divided by value on layer lacking PSMA” value in test [2] (8 nM iBody) was 0.9; in test [2] (40 nM iBody), 1.3; in test [2] (200 nM iBody), 1.1; in test [2] (1000 nM iBody), 0.8; in test [2] (5000 nM iBody) it was 0.8. In addition, the “specific binding to immobilized PSMA compared with control layer (in words)” value in test [2] (ELISA, layer with vs without PSMA) is given as “no specific binding”.
